According to patent US10167262B2, “Herbicidal substituted 3-arylpyrazoles” (FMC CORPORATION, priority 2014, dated 2019):

What was measured:
Format in all cases: in vivo
[1] = tested on: yellow nutsedge (Cyperus esculentus); experiment: Test E pre-/postemergence greenhouse test, plant response rating 0-100; conditions: Preemergence, scale 0 to 100
[2] = tested on: smartweed (ladysthumb smartweed, Polygonum persicaria); experiment: as above; conditions: scale 0 to 100; for Plant response rating, Smartweed: Postemergence; for Smartweed plant response rating: Preemergence
[3] = tested on: morningglory (Ipomoea coccinea); experiment: as above; conditions: Preemergence, scale 0 to 100
[4] = tested on: green foxtail (Setaria viridis); experiment: as above; conditions: Preemergence, scale 0 to 100
[5] = tested on: goosegrass (Eleusine indica); experiment: as above; conditions: Preemergence, scale 0 to 100
[6] = tested on: johnsongrass (Sorghum halepense); experiment: as above; conditions: Preemergence, scale 0 to 100
[7] = tested on: field bindweed (Convolvulus arvensis); experiment: as above; conditions: scale 0 to 100; for Plant response rating, Field Bindweed: Postemergence; for Field Bindweed plant response rating: Preemergence
Procedure, shortened: (§1)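 Greenhouse pot assay, two application timings. Pre- to silt loam at planting; post- to 1–4-leaf plants. Visual 0–100 score at 14–21 d.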

[8] = tested on: ragweed (common ragweed, Ambrosia elatior); experiment: as above; conditions: Preemergence, scale 0 to 100
Procedure, shortened: as §1

[9] = tested on: waterhemp (common waterhemp, Amaranthus rudis); experiment: as above; conditions: scale 0 to 100; for Plant response rating, Waterhemp: Postemergence; for Waterhemp plant response rating: Preemergence
Procedure, shortened: as §1

[10] = tested on: smartweed (ladysthumb smartweed, Polygonum persicaria); experiment: as above; conditions: Postemergence, scale 0 to 100
[11] = tested on: velvetleaf (Abutilon theophrasti); experiment: as above; conditions: Preemergence, scale 0 to 100
Procedure, shortened: as §1

kochia (Kochia scoparia) = experiment: as above; conditions: Preemergence, scale 0 to 100
Procedure, shortened: as §1

[12] = tested on: surinam grass (Brachiaria decumbens); experiment: as above; conditions: Preemergence, scale 0 to 100
Procedure, shortened: as §1

soybean (Glycine max) = experiment: as above; conditions: scale 0 to 100; for Plant response rating, Soybean: Postemergence; for Soybean plant response rating: Preemergence
Procedure, shortened: as §1

[13] = tested on: large (Lg) crabgrass (Digitaria sanguinalis); experiment: as above; conditions: Preemergence, scale 0 to 100
[14] = tested on: giant foxtail (Setaria faberii); experiment: as above; conditions: Preemergence, scale 0 to 100
[15] = tested on: waterhemp_RES1, (ALS & Triazine resistant common waterhemp, Amaranthus rudis); experiment: Test E postemergence greenhouse test, plant response rating 0-100; conditions: scale 0 to 100
Procedure, shortened: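 Resistant waterhemp biotypes grown in peat/vermiculite medium and treated postemergence at 2–18 cm height (1- to 4-leaf stage). Kept in greenhouse 14 to 21 days, then visually rated against untreated controls on a 0–100 scale (0 no effect, 100 complete control).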

O=C(c1ccccc1)c1cn(S(=O)(=O)CCl)nc1-c1cc(Cl)cc(Cl)c1 [Compound 1]
Nutsedge, Yellow plant response rating ([1]; 31 g ai/ha): 0 | Nutsedge, Yellow plant response rating ([1]; 62 g ai/ha): 0 | Nutsedge, Yellow plant response rating ([1]; 125 g ai/ha): 0 | Nutsedge, Yellow plant response rating ([1]; 250 g ai/ha): 0 | Plant response rating, Smartweed ([2]; 500 g ai/ha): 85 | Smartweed plant response rating ([2]; 31 g ai/ha): 0 | Smartweed plant response rating ([2]; 125 g ai/ha): 98 | Smartweed plant response rating ([2]; 250 g ai/ha): 98 | Smartweed plant response rating ([2]; 500 g ai/ha): 98 | Morningglory plant response rating ([3]; 31 g ai/ha): 0 | Morningglory plant response rating ([3]; 62 g ai/ha): 0 | Morningglory plant response rating ([3]; 125 g ai/ha): 0 | Morningglory plant response rating ([3]; 250 g ai/ha): 0 | Morningglory plant response rating ([3]; 500 g ai/ha): 0 | Foxtail, Green plant response rating ([4]; 31 g ai/ha): 0 | Foxtail, Green plant response rating ([4]; 62 g ai/ha): 0 | Foxtail, Green plant response rating ([4]; 125 g ai/ha): 0 | Foxtail, Green plant response rating ([4]; 250 g ai/ha): 0 | Foxtail, Green plant response rating ([4]; 500 g ai/ha): 15 | Goosegrass plant response rating ([5]; 31 g ai/ha): 0 | Goosegrass plant response rating ([5]; 62 g ai/ha): 0 | Goosegrass plant response rating ([5]; 125 g ai/ha): 0 | Goosegrass plant response rating ([5]; 250 g ai/ha): 0 | Goosegrass plant response rating ([5]; 500 g ai/ha): 0 | Johnsongrass plant response rating ([6]; 31 g ai/ha): 0 | Johnsongrass plant response rating ([6]; 62 g ai/ha): 0 | Johnsongrass plant response rating ([6]; 125 g ai/ha): 0 | Johnsongrass plant response rating ([6]; 250 g ai/ha): 20 | Johnsongrass plant response rating ([6]; 500 g ai/ha): 20 | Plant response rating, Field Bindweed ([7]; 31 g ai/ha): 0 | Plant response rating, Field Bindweed ([7]; 62 g ai/ha): 0 | Plant response rating, Field Bindweed ([7]; 125 g ai/ha): 0 | Plant response rating, Field Bindweed ([7]; 250 g ai/ha): 0 | Plant response rating, Field Bindweed ([7]; 500 g ai/ha): 0 | Field Bindweed plant response rating ([7]; 31 g ai/ha): 0 | Field Bindweed plant response rating ([7]; 62 g ai/ha): 0 | Field Bindweed plant response rating ([7]; 125 g ai/ha): 0 | Field Bindweed plant response rating ([7]; 250 g ai/ha): 0 | Field Bindweed plant response rating ([7]; 500 g ai/ha): 0 | Ragweed plant response rating ([8]; 31 g ai/ha): 50 | Ragweed plant response rating ([8]; 250 g ai/ha): 75 | Ragweed plant response rating ([8]; 500 g ai/ha): 75 | Plant response rating, Waterhemp ([9]; 31 g ai/ha): 65 | Plant response rating, Waterhemp ([9]; 62 g ai/ha): 90 | Plant response rating, Waterhemp ([9]; 125 g ai/ha): 98 | Plant response rating, Waterhemp ([9]; 250 g ai/ha): 98 | Plant response rating, Waterhemp ([9]; 500 g ai/ha): 100 | Waterhemp plant response rating ([9]; 31 g ai/ha): 0 | Waterhemp plant response rating ([9]; 62 g ai/ha): 20 | Waterhemp plant response rating ([9]; 125 g ai/ha): 60 | Waterhemp plant response rating ([9]; 250 g ai/ha): 60 | Waterhemp plant response rating ([9]; 500 g ai/ha): 100 | Plant response rating, Smartweed ([10]; 31 g ai/ha): 0 | Plant response rating, Smartweed ([10]; 62 g ai/ha): 35 | Plant response rating, Smartweed ([10]; 125 g ai/ha): 50 | Plant response rating, Smartweed ([10]; 250 g ai/ha): 75 | Velvetleaf plant response rating ([11]; 31 g ai/ha): 35 | Velvetleaf plant response rating ([11]; 62 g ai/ha): 40 | Velvetleaf plant response rating ([11]; 125 g ai/ha): 50 | Velvetleaf plant response rating ([11]; 250 g ai/ha): 35 | Velvetleaf plant response rating ([11]; 500 g ai/ha): 50 | Kochia plant response rating (kochia (Kochia scoparia); 31 g ai/ha): 0 | Kochia plant response rating (kochia (Kochia scoparia); 62 g ai/ha): 0 | Kochia plant response rating (kochia (Kochia scoparia); 125 g ai/ha): 0 | Kochia plant response rating (kochia (Kochia scoparia); 250 g ai/ha): 50 | Kochia plant response rating (kochia (Kochia scoparia); 500 g ai/ha): 98 | Surinam Grass plant response rating ([12]; 31 g ai/ha): 0 | Surinam Grass plant response rating ([12]; 62 g ai/ha): 0 | Surinam Grass plant response rating ([12]; 125 g ai/ha): 0 | Surinam Grass plant response rating ([12]; 250 g ai/ha): 0 | Surinam Grass plant response rating ([12]; 500 g ai/ha): 0 | Plant response rating, Soybean (soybean (Glycine max); 31 g ai/ha): 0 | Plant response rating, Soybean (soybean (Glycine max); 62 g ai/ha): 0 | Plant response rating, Soybean (soybean (Glycine max); 125 g ai/ha): 0 | Plant response rating, Soybean (soybean (Glycine max); 250 g ai/ha): 0 | Plant response rating, Soybean (soybean (Glycine max); 500 g ai/ha): 0 | Soybean plant response rating (soybean (Glycine max); 31 g ai/ha): 0 | Soybean plant response rating (soybean (Glycine max); 62 g ai/ha): 0 | Soybean plant response rating (soybean (Glycine max); 125 g ai/ha): 0 | Soybean plant response rating (soybean (Glycine max); 250 g ai/ha): 0 | Soybean plant response rating (soybean (Glycine max); 500 g ai/ha): 0 | Crabgrass, Large plant response rating ([13]; 31 g ai/ha): 0 | Crabgrass, Large plant response rating ([13]; 62 g ai/ha): 0 | Crabgrass, Large plant response rating ([13]; 125 g ai/ha): 0 | Crabgrass, Large plant response rating ([13]; 250 g ai/ha): 0 | Crabgrass, Large plant response rating ([13]; 500 g ai/ha): 0 | Foxtail, Giant plant response rating ([14]; 31 g ai/ha): 0 | Foxtail, Giant plant response rating ([14]; 62 g ai/ha): 0 | Foxtail, Giant plant response rating ([14]; 125 g ai/ha): 0 | Foxtail, Giant plant response rating ([14]; 250 g ai/ha): 0 | Foxtail, Giant plant response rating ([14]; 500 g ai/ha): 0

CCn1cc(C(=O)c2cccs2)c(-c2cc(Cl)cc(Cl)c2)n1 [Compound 18]
Plant response rating, Smartweed ([2]; 500 g ai/ha): 20 | Plant response rating, Field Bindweed ([7]; 31 g ai/ha): 0 | Plant response rating, Field Bindweed ([7]; 62 g ai/ha): 15 | Plant response rating, Field Bindweed ([7]; 125 g ai/ha): 25 | Plant response rating, Field Bindweed ([7]; 250 g ai/ha): 25 | Plant response rating, Field Bindweed ([7]; 500 g ai/ha): 35 | Plant response rating, Waterhemp ([9]; 31 g ai/ha): 50 | Plant response rating, Waterhemp ([9]; 62 g ai/ha): 75 | Plant response rating, Waterhemp ([9]; 125 g ai/ha): 85 | Plant response rating, Waterhemp ([9]; 250 g ai/ha): 90 | Plant response rating, Waterhemp ([9]; 500 g ai/ha): 95 | Plant response rating, Soybean (soybean (Glycine max); 31 g ai/ha): 0 | Plant response rating, Soybean (soybean (Glycine max); 62 g ai/ha): 0 | Plant response rating, Soybean (soybean (Glycine max); 125 g ai/ha): 10 | Plant response rating, Soybean (soybean (Glycine max); 250 g ai/ha): 20 | Plant response rating, Soybean (soybean (Glycine max); 500 g ai/ha): 30 | Plant response rating, Waterhemp_RES1 ([15]; 31 g ai/ha): 60 | Plant response rating, Waterhemp_RES1 ([15]; 62 g ai/ha): 70 | Plant response rating, Waterhemp_RES1 ([15]; 125 g ai/ha): 85 | Plant response rating, Waterhemp_RES1 ([15]; 250 g ai/ha): 95 | Plant response rating, Waterhemp_RES1 ([15]; 500 g ai/ha): 95
